Assay results published in US7217808B2, “RFRP-3 and DNA thereof” (Takeda Pharmaceutical Company, Ltd., priority 2001, dated 2007).

Key:
rOT7T022L = target: T1, rOT7T022L (Rattus norvegicus, UniProt Q9EP86); assay: Cytosensor acidification rate of rOT7T022L receptor-expressing CHO cells; format: cell-based; details: peptide exposure 7 min 2 sec
T1 construct: expressed in transfected cells; host or cells: CHO dhfr- cells (clone CHO-rOT7T022L)
Source text: The rOT7T022L receptor-expressing CHO cells obtained in (2) in Reference Example 7 were sown in cytosensor capsules at 2.7×10^5 cells/capsule. After overnight culture, the capsules were mounted in the work station of a cytosensor. The assay medium (0.1% bovine serum albumin-containing low buffered RPMI1640 medium) positioned in the flow route of the cytosensor was supplied to the cells under pump ON (80 sec)/pump OFF (40 sec) cycles. In each cycle, the change ratio of extracellular pH for 30 sec starting from 8 sec after the stop of the pump was calculated as acidification rate. The time course of acidification rate was monitored. When this rate began to show stable values, the flow route was shifted to thereby expose individual peptide to the cells for 7 min and 2 sec. The values of acidification rate in individual wells were normalized taking the values for the 3 cycles immediately before the peptide exposure as 100%.

human-type OT7T022 = target: T2, human-type OT7T022 (Homo sapiens, UniProt Q9GZQ6); assay: Binding inhibition of 125I-Tyr-hRFRP-3(8) to membrane fraction from human-type OT7T022-expressing CHO cells; details: room temperature 1.5 hr
T2 construct: expressed in transfected cells; host or cells: CHO cells
Procedure: With this buffer, the membrane fraction from human-type OT7T022-expressing CHO cells was diluted to give a concentration of 1 μg/25 μl. […] Sample solutions prepared, NSB and the assay buffer were dispensed into polypropylene 96-well plates in quadruplicate as total 50 μl/well. […] Twenty-five microliter of the membrane fraction solution from human-type OT7T022-expressing CHO cells was added thereto, agitated with a plate mixer and incubated at room temperature for 1.5 hr. Using a cell harvester for 96-well plates, the contents of each well were adsorbed onto a filter unit (GF/C, treated with polyethylene imine) pre-moisturized with washing buffer (50 mM Tris-HCl, pH 7.5). After washing 5 times with the washing buffer, the adsorbate was dried thoroughly. The lower part of the filter unit was sealed. Then, 50 μl of liquid scintillator was added to each well and the upper part of the filter unit was sealed. Radioactivity was measured with a Top Count (Packard), and data were analyzed in triplicate.

Human OT7T022 receptor = target: T3, Human OT7T022 receptor (Homo sapiens, UniProt Q9GZQ6); assay: Effect of pertussis toxin upon activation of human OT7T022 receptor (cAMP production inhibition); format: cell-based; details: 0.1 μM peptide, 1 μM forskolin, 100 ng/ml pertussis toxin overnight
T3 construct: expressed in transfected cells; host or cells: CHO cells
Procedure: The human OT7T022 receptor-expressing CHO cells obtained in Example A8 were plated in 24-well plates at 1×10^5 cells/well and cultured overnight. Then, the medium was changed for 100 ng/ml pertussis toxin (Sigma)-containing medium or a control medium, and the cells were cultured overnight. The cells were washed with Hanks' buffer (HBSS) supplemented with 0.05% BSA and 0.2 mM IBMX and then pre-incubated in the same buffer at 37° C., for 30 min. Subsequently, the buffer was exchanged for HBSS supplemented with 0.05% BSA and 0.2 mM IBMX, HBSS supplemented with 1 μM forskolin alone, or HBSS supplemented with 1 μM forskolin and a peptide at various concentrations, and the cells were incubated at 37° C. for 30 min. After the incubation, the buffer was exchanged for HBSS supplemented with 0.05% BSA and 0.2 mM IBMX (black column), this buffer supplemented with 1 μM forskolin alone (white column), or this buffer supplemented with 1 μM forskolin and 0.1 μM RFRP-1-12 (peptide having the amino acid sequence which is from position 81 (Met) to position 92 (Phe) of SEQ ID NO: 1) (column with slant lines), and the cells were incubated at 37° C. for 30 min. After the incubation, intracellular cAMP was extracted and determined for each well according to the protocol attached to the cAMP EIA Kit (Amersham). […]

adult male Wistar rats = assay: Plasma pituitary hormone levels after administration into the third ventricle; format: in vivo, rat; details: 10 mnol into the third ventricle; for plasma prolactin levels: vs PBS control
Procedure: Effects of the administration of the peptide represented by SEQ ID NO: 39 into the third ventricle upon pituitary hormone levels were examined. Briefly, adult male Wistar rats (body weight 290–350 g at the time of surgery) were anesthetized by intraperitoneal administration of 50 mg/kg pentobarbital and fixed in a stereotaxic apparatus for rat brain. The incisor bar was set 3.3 mm below the interaural line. The skull surface was exposed, and a hole was drilled in the skull with a dental drill in order to implant a guide cannula Further, an anchor screw was embedded at one place around the hole. A stainless guide cannula AG-12 (inside dia. 0.4 mm, outside dia. 0.5 mm; Eicom) was inserted so that its tip is located above the third ventricle. The stereotaxic coordinates were set as follows according to the atlas of Paxinos and Watson (1998): AP: +7.2 mm (from the interaural line), L: 0.0 mm, H: +2.0 mm (from the interaural line). The guide cannula was fixed onto the skull with instant glue, dental cement and the anchor screw. A stainless dummy cannula AD-12 (outside dia. 0.35 mm; Eicom) was inserted into the guide cannula and fixed with a cap nut (Eicom). After the surgery, the rats were bred separately in individual cages for more than one week to allow recovery.
The day before the experiment, the rats that had undergone the above surgery were anesthetized by intraperitoneal administration of 50 mg/kg pentobarbital and fixed on anatomical pads in face-up position. Then, a catheter (SP35; Natsume Seisakusho) was inserted into the right jugular vein. The next day, 400 μl of blood was taken from the jugular vein. In order to prevent blood coagulation, 20 μl of physiological saline containing 200 units/ml heparin was put in advance in the injection syringe. The cap nut and the dummy cannula installed on the rat skull were removed. Instead of them, a stainless microinjection cannula AMI13 (inside dia. 0.17 mm, outside dia. 0.35 mm; Eicom) connected with a Teflon tube (length 50 cm, inside dia. 0.1 mm, outside dia. 0.4 mm; Eicom) was inserted into the guide cannula. The length of the microinjection cannula was adjusted in advance so that 1 mm of its tip is exposed from the guide cannula. One end of the Teflon tube was connected with a microsyringe pump. Then, a total 10 μl of PBS alone or PBS containing the peptide represented by SEQ ID NO: 39 was injected into the third ventricle at a flow rate of 5 μl/min. One minute after the completion of the injection, the microinjection cannula was removed, and a dummy cannula was fixed again with a cap nut. A 400 μl blood sample was taken from the cannula inserted into the jugular vein immediately before the start of the intraventricular administration and at 10, 20, 30, 40 and 60 min after the start of the intraventricular administration. The collected blood was centrifuged at 5,000 rpm for 10 min in a high-speed refrigerated microcentrifuge (MR-150; Tomy Seiko) to recover the supernatant (plasma). The prolactin levels in the plasma were measured by radioimmunoassay.
The results are expressed as mean±S.E.M. Whether there is a significant difference between the group to which PBS containing the peptide represented by SEQ ID NO: 39 was administered and the control group to which PBS alone was administered was tested by Student's t-test. Differences were assessed with two-sided tests, and significance level 5% or below was judged statistically significant.

T1 sequence (Q9EP86 whole entry): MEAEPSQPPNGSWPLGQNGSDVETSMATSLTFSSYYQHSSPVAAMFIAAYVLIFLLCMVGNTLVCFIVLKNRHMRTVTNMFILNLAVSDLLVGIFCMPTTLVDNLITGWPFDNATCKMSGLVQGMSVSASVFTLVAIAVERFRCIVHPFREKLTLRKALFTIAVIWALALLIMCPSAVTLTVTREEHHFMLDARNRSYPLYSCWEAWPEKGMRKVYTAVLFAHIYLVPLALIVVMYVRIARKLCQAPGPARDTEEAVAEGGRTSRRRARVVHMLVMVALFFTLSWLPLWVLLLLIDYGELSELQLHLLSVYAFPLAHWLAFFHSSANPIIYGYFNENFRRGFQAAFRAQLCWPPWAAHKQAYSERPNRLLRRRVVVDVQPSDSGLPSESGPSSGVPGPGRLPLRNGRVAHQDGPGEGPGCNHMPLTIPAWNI
T2 sequence (Q9GZQ6 whole entry): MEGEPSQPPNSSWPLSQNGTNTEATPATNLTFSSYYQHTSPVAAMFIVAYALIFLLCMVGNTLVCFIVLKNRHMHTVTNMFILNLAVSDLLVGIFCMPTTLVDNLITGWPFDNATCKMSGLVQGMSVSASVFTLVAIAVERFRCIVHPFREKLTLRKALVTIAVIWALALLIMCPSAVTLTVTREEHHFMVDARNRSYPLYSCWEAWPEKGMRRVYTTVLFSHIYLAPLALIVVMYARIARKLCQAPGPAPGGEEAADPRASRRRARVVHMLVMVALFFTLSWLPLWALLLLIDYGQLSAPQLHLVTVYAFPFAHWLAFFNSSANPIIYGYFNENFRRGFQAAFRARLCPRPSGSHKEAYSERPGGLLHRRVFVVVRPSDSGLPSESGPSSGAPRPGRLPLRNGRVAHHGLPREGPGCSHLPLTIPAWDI
T3 sequence (Q9GZQ6 whole entry): as above

Row | Molecule | reactivity of rOT7T022L receptor-expressing CHO cells (acidification rate) (rOT7T022L) | IC50 (human-type OT7T022) | cAMP production inhibitory activity in cells treated with pertussis toxin (Human OT7T022 receptor) | ACTH level in the plasma (adult male Wistar rats) | GH level in the plasma (adult male Wistar rats) | LH level in the plasma (adult male Wistar rats) | TSH level in the plasma (adult male Wistar rats) | plasma prolactin levels (adult male Wistar rats; 60 min after administration) | plasma prolactin levels (adult male Wistar rats; at 20, 30 and 40 min after administration) | plasma prolactin levels (adult male Wistar rats; from 10 min after administration)
1 | CC(C)C[C@H](NC(=O)[C@H](CC(N)=O)NC(=O)[C@@H]1CCCN1C(=O)[C@@H](N)C(C)C)C(=O)N1CCC[C@H]1C(=O)N[C@@H](CCC(N)=O)C(=O)N[C@@H](CCCNC(=N)N)C(=O)N[C@@H](Cc1ccccc1)C(N)=O | reactive | – | – | – | – | – | – | – | – | –
2 | H-ATANLPLRSGRNMEVSLVRRVPNLPQRF-NH2 [hRFRP-3 (28)] | – | 1.6 nM | – | – | – | – | – | – | – | –
3 | H-MPHSFANLPLRF-NH2 | reactive | – | disappeared | did not show significant changes | did not show significant changes | did not show significant changes | did not show significant changes | significant difference was observed | increased significantly | increasing tendency
